Drawing on PubChem BioAssay AID1259407 (Chemical Carcinogenesis Research Information System (CCRIS), 2018), this text covers mutagenic call for eight compounds.

The test system of this data set is CCRIS mutagenicity, Ames/micronucleus/aberration tests. Briefly: CCRIS mutagenicity studies.
[1] abbreviates: Test System: AMES SALMONELLA TYPHIMURIUM, Strain/Indicator: TA98, Metabolic Activation: NONE, Method: STANDARD PLATE.
[2] abbreviates: Test System: AMES SALMONELLA TYPHIMURIUM, Strain/Indicator: TA100, Metabolic Activation: NONE, Method: STANDARD PLATE.
[3] abbreviates: Test System: AMES SALMONELLA TYPHIMURIUM, Strain/Indicator: TA1535, Metabolic Activation: NONE, Method: STANDARD PLATE.
The mark [4] stands for this setting: Test System: AMES SALMONELLA TYPHIMURIUM, Strain/Indicator: TA1537, Metabolic Activation: NONE, Method: STANDARD PLATE.
[5] abbreviates: Test System: AMES SALMONELLA TYPHIMURIUM, Strain/Indicator: TA98, Metabolic Activation: HAMSTER, LIVER, S-9, AROCLOR 1254 (10%), Method: PREINCUBATION
[6] abbreviates: Test System: AMES SALMONELLA TYPHIMURIUM, Strain/Indicator: TA98, Metabolic Activation: NONE, Method: PREINCUBATION
The mark [7] stands for this setting: Test System: AMES SALMONELLA TYPHIMURIUM, Strain/Indicator: TA98, Metabolic Activation: RAT, LIVER, S-9, AROCLOR 1254 (10%), Method: PREINCUBATION
Where [8] appears, read: Test System: AMES SALMONELLA TYPHIMURIUM, Strain/Indicator: TA100, Metabolic Activation: HAMSTER, LIVER, S-9, AROCLOR 1254 (10%), Method: PREINCUBATION
[9] abbreviates: Test System: AMES SALMONELLA TYPHIMURIUM, Strain/Indicator: TA100, Metabolic Activation: NONE, Method: PREINCUBATION
Setting [10] is: Test System: AMES SALMONELLA TYPHIMURIUM, Strain/Indicator: TA100, Metabolic Activation: RAT, LIVER, S-9, AROCLOR 1254 (10%), Method: PREINCUBATION
Where [11] appears, read: Test System: AMES SALMONELLA TYPHIMURIUM, Strain/Indicator: TA1535, Metabolic Activation: HAMSTER, LIVER, S-9, AROCLOR 1254 (10%), Method: PREINCUBATION
Where [12] appears, read: Test System: AMES SALMONELLA TYPHIMURIUM, Strain/Indicator: TA1535, Metabolic Activation: NONE, Method: PREINCUBATION
[13] abbreviates: Test System: AMES SALMONELLA TYPHIMURIUM, Strain/Indicator: TA1535, Metabolic Activation: RAT, LIVER, S-9, AROCLOR 1254 (10%), Method: PREINCUBATION

SMILES strings stand for the structures. Active and inactive are the calls of the source. The rule behind the calls is not given here.

With `Cc1ccc2nsc(N)c2c1`, the mutagenic call under setting [1] was “inactive; negative”; the mutagenic call (Test System: AMES SALMONELLA TYPHIMURIUM, Strain/Indicator: TA98, Metabolic Activation: S-9, Method: STANDARD PLATE) was “active; positive”; the mutagenic call under setting [2] is “inactive; negative”; the mutagenic call (Test System: AMES SALMONELLA TYPHIMURIUM, Strain/Indicator: TA100, Metabolic Activation: S-9, Method: STANDARD PLATE) was “active; positive”; the mutagenic call under setting [3] was “inactive; negative”; the mutagenic call (Test System: AMES SALMONELLA TYPHIMURIUM, Strain/Indicator: TA1535, Metabolic Activation: S-9, Method: STANDARD PLATE) was “inactive; negative”. The mutagenic call is, setting by setting: under setting [4], “inactive; negative”; (Test System: AMES SALMONELLA TYPHIMURIUM, Strain/Indicator: TA1537, Metabolic Activation: S-9, Method: STANDARD PLATE) “active; positive”.

In the case of `Cc1ccc2c3c(cc4ccccc4c13)-c1ccccc1-2`, the mutagenic call (Test System: AMES SALMONELLA TYPHIMURIUM, Strain/Indicator: TA100, Metabolic Activation: RAT, LIVER, S-9, AROCLOR 1254) is “active; positive”.

As to `O=C(Nc1ccc2c(O)c(N=Nc3ccc(N=Nc4ccc(S(=O)(=O)O)cc4)cc3)c(S(=O)(=O)O)cc2c1)c1ccccc1`, the mutagenic call was “inactive; negative” under setting [1]; “inactive; negative” (Test System: AMES SALMONELLA TYPHIMURIUM, Strain/Indicator: TA98, Metabolic Activation: RAT, LIVER, S-9, AROCLOR 1254, Method: STANDARD PLATE); “inactive; negative” under setting [2]; “inactive; negative” (Test System: AMES SALMONELLA TYPHIMURIUM, Strain/Indicator: TA100, Metabolic Activation: RAT, LIVER, S-9, AROCLOR 1254, Method: STANDARD PLATE); “inactive; negative” under setting [3]; “inactive; negative” (Test System: AMES SALMONELLA TYPHIMURIUM, Strain/Indicator: TA1535, Metabolic Activation: RAT, LIVER, S-9, AROCLOR 1254, Method: STANDARD PLATE). In addition, the mutagenic call under setting [4] was “inactive; negative”; the mutagenic call (Test System: AMES SALMONELLA TYPHIMURIUM, Strain/Indicator: TA1537, Metabolic Activation: RAT, LIVER, S-9, AROCLOR 1254, Method: STANDARD PLATE) was “inactive; negative”; the mutagenic call (Test System: AMES SALMONELLA TYPHIMURIUM, Strain/Indicator: TA1538, Metabolic Activation: NONE, Method: STANDARD PLATE) was “inactive; negative”; the mutagenic call (Test System: AMES SALMONELLA TYPHIMURIUM, Strain/Indicator: TA1538, Metabolic Activation: RAT, LIVER, S-9, AROCLOR 1254, Method: STANDARD PLATE) was “inactive; negative”.

Regarding `CCc1c(Br)c(Br)c(Br)c(Br)c1Br`, the mutagenic call under setting [5] was “inactive; negative”; the mutagenic call under setting [6] is “inactive; negative”; the mutagenic call under setting [7] was “inactive; negative”; the mutagenic call under setting [8] was “inactive; negative”; the mutagenic call under setting [9] was “inactive; negative”; the mutagenic call under setting [10] is “inactive; negative”. The mutagenic call under setting [11] is “inactive; negative”; the mutagenic call under setting [12] is “inactive; negative”; the mutagenic call under setting [13] was “inactive; negative”; the mutagenic call (Test System: AMES SALMONELLA TYPHIMURIUM, Strain/Indicator: TA1537, Metabolic Activation: HAMSTER, LIVER, S-9, AROCLOR 1254 (10%), Method: PREINCUBATION) is “inactive; negative”; the mutagenic call (Test System: AMES SALMONELLA TYPHIMURIUM, Strain/Indicator: TA1537, Metabolic Activation: NONE, Method: PREINCUBATION) is “inactive; negative”; the mutagenic call (Test System: AMES SALMONELLA TYPHIMURIUM, Strain/Indicator: TA1537, Metabolic Activation: RAT, LIVER, S-9, AROCLOR 1254 (10%), Method: PREINCUBATION) was “inactive; negative”.

Take `Oc1ccc2cc3c4ccccc4c4ccccc4c3cc2c1`: the mutagenic call (Test System: AMES SALMONELLA TYPHIMURIUM, Strain/Indicator: TA100, Metabolic Activation: RAT, LIVER, S-9, AROCLOR 1254, Method: PREINCUBATION) is “active; positive”.

On to `N.NC1CCCC1.O=C([O-])CC(O)C(=O)[O-].[Pt+2]` (centres undefined), for which the mutagenic call (End Point: IN VIVO MICRONUCLEUS, Test System: BONE MARROW, Species: MOUSE, Strain/Sex: WILD TYPE/MALE, Route: INTRAPERITONEAL) is “active; positive”.

Take `c1ccc(CSCc2ccccc2)cc1`: the mutagenic call (Test System: AMES SALMONELLA TYPHIMURIUM, Strain/Indicator: TA97, Metabolic Activation: HAMSTER, LIVER, S-9, AROCLOR 1254 (10%), Method: PREINCUBATION) was “inactive; negative”; the mutagenic call (Test System: AMES SALMONELLA TYPHIMURIUM, Strain/Indicator: TA97, Metabolic Activation: HAMSTER, LIVER, S-9, AROCLOR 1254 (30%), Method: PREINCUBATION) is “inactive; negative”; the mutagenic call (Test System: AMES SALMONELLA TYPHIMURIUM, Strain/Indicator: TA97, Metabolic Activation: NONE, Method: PREINCUBATION) is “inactive; negative”; the mutagenic call (Test System: AMES SALMONELLA TYPHIMURIUM, Strain/Indicator: TA97, Metabolic Activation: RAT, LIVER, S-9, AROCLOR 1254 (10%), Method: PREINCUBATION) was “inactive; negative”; the mutagenic call (Test System: AMES SALMONELLA TYPHIMURIUM, Strain/Indicator: TA97, Metabolic Activation: RAT, LIVER, S-9, AROCLOR 1254 (30%), Method: PREINCUBATION) was “inactive; negative”; the mutagenic call under setting [5] is “inactive; negative”. For the same compound, the mutagenic call is, setting by setting: (Test System: AMES SALMONELLA TYPHIMURIUM, Strain/Indicator: TA98, Metabolic Activation: HAMSTER, LIVER, S-9, AROCLOR 1254 (30%), Method: PREINCUBATION) “inactive; negative”; under setting [6], “inactive; negative”; under setting [7], “inactive; negative”; (Test System: AMES SALMONELLA TYPHIMURIUM, Strain/Indicator: TA98, Metabolic Activation: RAT, LIVER, S-9, AROCLOR 1254 (30%), Method: PREINCUBATION) “inactive; negative”; under setting [8], “inactive; negative”; (Test System: AMES SALMONELLA TYPHIMURIUM, Strain/Indicator: TA100, Metabolic Activation: HAMSTER, LIVER, S-9, AROCLOR 1254 (30%), Method: PREINCUBATION) “inactive; negative”. Moreover, the mutagenic call reads like this: under setting [9], “inactive; negative”; under setting [10], “inactive; negative”; (Test System: AMES SALMONELLA TYPHIMURIUM, Strain/Indicator: TA100, Metabolic Activation: RAT, LIVER, S-9, AROCLOR 1254 (30%), Method: PREINCUBATION) “inactive; negative”; under setting [11], “inactive; negative”; (Test System: AMES SALMONELLA TYPHIMURIUM, Strain/Indicator: TA1535, Metabolic Activation: HAMSTER, LIVER, S-9, AROCLOR 1254 (30%), Method: PREINCUBATION) “inactive; negative”; under setting [12], “inactive; negative”. The mutagenic call was “inactive; negative” under setting [13] and “inactive; negative” (Test System: AMES SALMONELLA TYPHIMURIUM, Strain/Indicator: TA1535, Metabolic Activation: RAT, LIVER, S-9, AROCLOR 1254 (30%), Method: PREINCUBATION).

On to `CN(C)C(=O)/C=C/c1ccc([N+](=O)[O-])o1`, for which the mutagenic call under setting [6] is “active; positive”.
